Source: ChEMBL document CHEMBL6177995, “In Silico Discovery of Novel Potent Trace Amine-Associated Receptor TAAR1 Agonists as Promising Drug Candidates for the Treatment of Schizophrenia” (J Med Chem, 2025)

What was measured:
[1] = molecular target: T1, Trace amine-associated receptor 1 (Homo sapiens, UniProt Q96RJ0); assay: Agonist activity at TAAR1 (unknown origin) transfected in HEK293 cells co-transfected with GalphaS-Nluc, Gbeta1/3 and Ggamma1/2/9-mVenus assessed as GalphaS-Gbeta/gamma dissociation by BRET assay; format: functional, cell-based
T1 sequence (Q96RJ0 whole entry): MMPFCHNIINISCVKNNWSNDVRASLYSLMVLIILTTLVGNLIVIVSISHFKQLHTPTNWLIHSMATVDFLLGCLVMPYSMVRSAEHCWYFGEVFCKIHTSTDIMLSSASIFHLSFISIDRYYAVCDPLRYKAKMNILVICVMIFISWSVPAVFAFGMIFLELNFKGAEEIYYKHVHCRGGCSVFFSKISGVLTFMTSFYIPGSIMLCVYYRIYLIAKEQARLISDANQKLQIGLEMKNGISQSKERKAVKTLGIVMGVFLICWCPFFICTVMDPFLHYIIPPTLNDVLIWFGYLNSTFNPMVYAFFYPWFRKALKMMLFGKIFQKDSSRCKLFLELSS

[2] = Half-life in Sprague-Dawley rat at 2 mg/kg, iv measured after 8 hrs by LC-MS/MS analysis; format: ADME, organism-based; conditions: in vivo
[3] = Tmax in Sprague-Dawley rat at 2 mg/kg, iv measured after 8 hrs by LC-MS/MS analysis; format: ADME, organism-based; conditions: in vivo
[4] = Cmax in Sprague-Dawley rat at 2 mg/kg, iv measured after 8 hrs by LC-MS/MS analysis; format: ADME, organism-based; conditions: in vivo
[5] = AUC (0 to t) in Sprague-Dawley rat at 2 mg/kg, iv measured after 8 hrs by LC-MS/MS analysis; format: ADME, organism-based; conditions: in vivo
[6] = AUC (0 to infinity) in Sprague-Dawley rat at 2 mg/kg, iv measured after 8 hrs by LC-MS/MS analysis; format: ADME, organism-based; conditions: in vivo
[7] = Clearance in Sprague-Dawley rat at 2 mg/kg, iv measured after 8 hrs by LC-MS/MS analysis; format: ADME, organism-based; conditions: in vivo
[8] = Half-life in Sprague-Dawley rat at 10 mg/kg, po measured after 8 hrs by LC-MS/MS analysis; format: ADME, organism-based; conditions: in vivo
[9] = Tmax in Sprague-Dawley rat at 10 mg/kg, po measured after 8 hrs by LC-MS/MS analysis; format: ADME, organism-based; conditions: in vivo
[10] = Cmax in Sprague-Dawley rat at 10 mg/kg, po measured after 8 hrs by LC-MS/MS analysis; format: ADME, organism-based; conditions: in vivo
[11] = AUC (0 to t) in Sprague-Dawley rat at 10 mg/kg, po measured after 8 hrs by LC-MS/MS analysis; format: ADME, organism-based; conditions: in vivo
[12] = AUC (0 to infinity) in Sprague-Dawley rat at 10 mg/kg, po measured after 8 hrs by LC-MS/MS analysis; format: ADME, organism-based; conditions: in vivo
[13] = Oral bioavailability in Sprague-Dawley rat at 10 mg/kg measured after 8 hrs by LC-MS/MS analysis; format: ADME, organism-based; conditions: in vivo
[14] = Acute toxicity in Kunming mouse assessed as abnormalities at 1000 mg/kg, po administered as single dose and measured after 7 days; format: organism-based; conditions: in vivo, 168 h, time 7 day
[15] = Acute toxicity in Kunming mouse assessed as animal death at 1000 mg/kg, po administered as single dose and measured after 7 days; format: organism-based; conditions: in vivo, 168 h, time 7 day
[16] = Acute toxicity in Kunming mouse assessed as effect on body weight at 1000 mg/kg, po administered as single dose and measured after 7 days; format: organism-based; conditions: in vivo, 168 h, time 7 day
[17] = Acute toxicity in Kunming mouse assessed as effect on heart co-efficient at 1000 mg/kg, po administered as single dose and measured after 7 days; format: organism-based; conditions: in vivo, 168 h, time 7 day
[18] = Acute toxicity in Kunming mouse assessed as effect on liver co-efficient at 1000 mg/kg, po administered as single dose and measured after 7 days; format: organism-based; conditions: in vivo, 168 h, time 7 day
[19] = Acute toxicity in Kunming mouse assessed as effect on spleen co-efficient at 1000 mg/kg, po administered as single dose and measured after 7 days; format: organism-based; conditions: in vivo, 168 h, time 7 day
[20] = Acute toxicity in Kunming mouse assessed as effect on lung co-efficient at 1000 mg/kg, po administered as single dose and measured after 7 days; format: organism-based; conditions: in vivo, 168 h, time 7 day
[21] = Acute toxicity in Kunming mouse assessed as effect on kidney co-efficient at 1000 mg/kg, po administered as single dose and measured after 7 days; format: organism-based; conditions: in vivo, 168 h, time 7 day
[22] = Subacute toxicity in Kunming mouse assessed as abnormalities at 50 mg/kg, po administered every two days for 14 days; format: organism-based; conditions: in vivo, 336 h, time 14 day
[23] = Subacute toxicity in Kunming mouse assessed as animal death at 50 mg/kg, po administered every two days for 14 days; format: organism-based; conditions: in vivo, 336 h, time 14 day
[24] = Subacute toxicity in Kunming mouse assessed as effect on body weight at 50 mg/kg, po administered every two days for 14 days; format: organism-based; conditions: in vivo, 336 h, time 14 day
[25] = Subacute toxicity in Kunming mouse assessed as effect on heart coefficient at 50 mg/kg, po administered every two days for 14 days; format: organism-based; conditions: in vivo, 336 h, time 14 day
[26] = Subacute toxicity in Kunming mouse assessed as effect on liver coefficient at 50 mg/kg, po administered every two days for 14 days; format: organism-based; conditions: in vivo, 336 h, time 14 day
[27] = Subacute toxicity in Kunming mouse assessed as effect on spleen coefficient at 50 mg/kg, po administered every two days for 14 days; format: organism-based; conditions: in vivo, 336 h, time 14 day
[28] = Subacute toxicity in Kunming mouse assessed as effect on lung coefficient at 50 mg/kg, po administered every two days for 14 days; format: organism-based; conditions: in vivo, 336 h, time 14 day
[29] = Subacute toxicity in Kunming mouse assessed as effect on kidney coefficient at 50 mg/kg, po administered every two days for 14 days; format: organism-based; conditions: in vivo, 336 h, time 14 day
[30] = Subacute toxicity in Kunming mouse assessed as pathological changes in heart at 50 mg/kg, po administered every two days for 14 days by H and E staining based analysis; format: organism-based; conditions: in vivo, 336 h, time 14 day
[31] = Subacute toxicity in Kunming mouse assessed as pathological changes in liver at 50 mg/kg, po administered every two days for 14 days by H and E staining based analysis; format: organism-based; conditions: in vivo, 336 h, time 14 day
[32] = Subacute toxicity in Kunming mouse assessed as pathological changes in spleen at 50 mg/kg, po administered every two days for 14 days by H and E staining based analysis; format: organism-based; conditions: in vivo, 336 h, time 14 day
[33] = Subacute toxicity in Kunming mouse assessed as pathological changes in lung at 50 mg/kg, po administered every two days for 14 days by H and E staining based analysis; format: organism-based; conditions: in vivo, 336 h, time 14 day
[34] = Subacute toxicity in Kunming mouse assessed as pathological changes in kidney at 50 mg/kg, po administered every two days for 14 days by H and E staining based analysis; format: organism-based; conditions: in vivo, 336 h, time 14 day
[35] = Metabolic stability in human liver microsomes assessed as half-life preincubated for 60 mins followed by NADPH addition and measured after 60 mins by LC-MS/MS analysis; format: ADME, Microsome; conditions: time 120 min
[36] = Metabolic stability in human liver microsomes assessed as intrinsic clearance preincubated for 60 mins followed by NADPH addition and measured after 60 mins by LC-MS/MS analysis; format: ADME, Microsome; conditions: time 120 min, read-out: CLH
[37] = Aqueous solubility of compound at pH 2.0; format: physicochemical; conditions: aqueous solution
[38] = Aqueous solubility of compound at pH 7.0; format: physicochemical; conditions: aqueous solution
[39] = Aqueous solubility of compound at pH 7.4; format: physicochemical; conditions: aqueous solution
Mus musculus [40] = assay: Antipsychotic activity in MK-801 induced male C57BL/6J mouse model assessed as reduction in hyperlocomotion preadministered orally for 30 mins followed by MK801 administration for 30 mins and measured after 10 mins by open field test; format: functional, organism-based; conditions: dose 1-10 mg/kg, route po, time 70.0 min
Mus musculus [41] = assay: Antipsychotic activity in MK-801 induced male C57BL/6J mouse model assessed as locomotion at 10 mg/kg, po preadministered for 30 mins followed by MK801 administration for 30 mins and measured after 10 mins by open field test (reference value: 8631.5 cm); format: functional; conditions: time 70 min, 1.167 h
[42] = Toxicity in male C57BL/6J mouse assessed as effect on locomotion at 1 to 10 mg/kg, po administered for 30 mins and measured after 10 mins by open field test; format: organism-based; conditions: in vivo, 40 min, dose 1-10 mg/kg
Mus musculus [43] = assay: Antipsychotic activity in MK-801 induced male C57BL/6J mouse model assessed as improvement in recognition deficit performance by measuring discrimination index at 3 mg/kg, po pre-administered with MK-801 as twice daily days for 7 days followed by 1 week of washout period and measured after 1 hrs of compound administration by novel object recognition test (reference value: 0.37); format: functional
[44] = Toxicity in male C57BL/6J mouse assessed as catalepsy performance at 30 mg/kg, ip measured after 30 to 60 mins by bar test; format: organism-based; conditions: in vivo, time 30-60 min
[45] = molecular target: T1, Trace amine-associated receptor 1; assay: Agonist activity at TAAR1 (unknown origin) transfected in HEK293 cells co-transfected with Galphaq-Nluc, Gbeta1/3 and Ggamma1/2/9-mVenus assessed as Galphaq-Gbeta/gamma dissociation by BRET assay; format: functional, cell-based
[46] = molecular target: T2, Trace amine-associated receptor 1 (Homo sapiens) (UniProt Q96RJ0); assay: Potency index, ratio of SEP-363856 EC50 to test compound EC50 for agonist activity at TAAR1 (unknown origin) transfected in HEK293 cells co-transfected with GalphaS-Nluc, Gbeta1/3 and Ggamma1/2/9-mVenus assessed as GalphaS-Gbeta/gamma dissociation by BRET assay; format: functional, cell-based; conditions: filed as agonist
T2 sequence (whole entry): T1 sequence (Q96RJ0 whole entry)

## COc1ccc2c(c1OC)C(=O)OC2Nc1ccccn1 (stereo not drawn)
[1]
  EC50: 161 nM

## O=c1[nH]c2cc(S(=O)(=O)NC[C@@H]3CCCN3)ccc2o1
[1]
  EC50: 158 nM

## COc1cccc(S(=O)(=O)NC[C@@H]2CCCN2)c1.Cl
[2]
  half-life: 21 min
[3]
  Tmax: 1.8 min
[4]
  Cmax: 746 ng/mL
[5]
  AUC(0-t) at 8 h: 355 ng·h/mL
[6]
  AUC(0-inf): 356 ng·h/mL
[7]
  clearance: 94.1 mL/min/kg
[8]
  half-life: 91.8 min
[9]
  Tmax: 25.2 min
[10]
  Cmax: 63.7 ng/mL
[11]
  AUC(0-t) at 8 h: 229 ng·h/mL
[12]
  AUC(0-inf): 240 ng·h/mL
[13]
  bioavailability: 13.4%
[14]
  Activity: Non-toxic
[15]
  Activity: Non-toxic
[16]
  Activity: Non-toxic
[17]
  Activity: Non-toxic
[18]
  Activity: Non-toxic
[19]
  Activity: Non-toxic
[20]
  Activity: Non-toxic
[21]
  Activity: Non-toxic
[22]
  Activity: Non-toxic
[23]
  Activity: Non-toxic
[24]
  Activity: Non-toxic
[25]
  Activity: Non-toxic
[26]
  Activity: Non-toxic
[27]
  Activity: Non-toxic
[28]
  Activity: Non-toxic
[29]
  Activity: Non-toxic
[30]
  Activity: Non-toxic
[31]
  Activity: Non-toxic
[32]
  Activity: Non-toxic
[33]
  Activity: Non-toxic
[34]
  Activity: Non-toxic
[35]
  half-life: 126 min
[36]
  microsomal CLint: 11 µL/min/mg
[37]
  solubility: 96.2 mg/mL
[38]
  solubility: 65.7 mg/mL
[39]
  solubility: 43.3 mg/mL
Mus musculus [40]
  Activity: Dose-dependent-effect
Mus musculus [41]
  Activity: 3917.8 cm
[42]
  Activity: Non-toxic
Mus musculus [43]
  Activity_index: 0.48
[44]
  Activity: Non-toxic
[1]
  EC50: 6.1 nM
[45]
  EC50: 14.8 nM
[46]
  Ratio EC50: 3.5

## CNc1ncc(S(C)(=O)=O)c(C2CCCNC2)n1 (stereo not drawn)
[1]
  EC50: 48.8 nM

## O=S(=O)(NC[C@@H]1CCCN1)c1ccc(C(F)(F)F)cc1
[1]
  EC50: > 10000 nM
[45]
  EC50: > 10000 nM

## O=S(=O)(NC[C@@H]1CCCN1)c1ccc(Br)cc1
[1]
  EC50: > 10000 nM
[45]
  EC50: > 10000 nM

## CC(C)CC(N)c1nc2ccccc2[nH]1 (stereo not drawn)
[1]
  EC50: 100 nM

## O=S(=O)(NC[C@@H]1CCCN1)c1ccccc1C(F)(F)F
[1]
  EC50: > 10000 nM
[45]
  EC50: > 10000 nM

## O=S(=O)(NC[C@@H]1CCCN1)c1ccc(Cl)s1
[1]
  EC50: > 10000 nM
[45]
  EC50: > 10000 nM
